Results from patent US20230248762A1, “Method and composition for supporting normal blood calcium concentrations in mammals” (Contract Manufacturing Services, LLC, priority 2022, published 2023).

Columns and labels:
[1] = system: blood calcium; settings: oral 50 g calcium; cited from earlier work
[2] = system: plasma calcium concentration; experiment: Plasma calcium after calving, herds without anionic diet (Example 5); assay type: in vivo, multiparous cows
Excerpt: For examples 2 thru 5, statistical analysis consisted of repeated measures analysis of variance with cow nested within treatment and time after bolus administration as the repeated measure. Treatment plasma calcium means were compared at each time point using Tukey's test of comparison of means and differences are declared to be significant when the probability of the null hypothesis being correct is P<0.075.
In Example 5, multiparous cows were utilized from several small farms that were not utilizing an anionic diet to reduce the incidence of hypocalcemia in the cows. Within a few hours of calving, cows were administered one of four treatments. Six cows were not treated with any bolus after calving (No Bolus). Four cows were treated with intravenous calcium (10.5 g calcium in the form of calcium gluconate) after calving (IV Ca). Twenty-two cows received 2 boluses after calving that contained calcium salts and Solanum glaucophyllum leaf, supplying 78 g calcium and 1,25-dihydroxyvitamin D3 glycoside equivalent to 196 ug 1,25-dihydroxyvitamin D3 (Ca+SG Bolus). Twenty-four cows were treated at calving and again 12-24 hrs. later with commercial oral calcium salt boluses that supplied 40-44 g calcium each for a total calcium dose of 80-88 g, primarily from calcium chloride (Ca Bolus).

Compound | calcium absorbed into the blood [1] | duration of increase of blood calcium [1] | increase of blood calcium [1] | time to increase of blood calcium [1] | effect on calcium homeostasis mechanisms of the cow ([2]; 10.5 g calcium intravenous) | plasma calcium concentration, rank among treatments ([2]; 24 to 84 hours after calving) | hypocalcemia versus no treatment ([2]; days 2 and 3 following lactation) | plasma calcium concentration, rank among treatments ([2]; four hours after calving)
[Ca+2].[Cl-].[Cl-] [calcium chloride] | about 4 g | 6 to 8 h | approximately 1 mg/dl | ≤ 1 h | – | – | – | –
calcium gluconate [Ca IV] | – | – | – | – | inhibited the calcium homeostasis mechanisms | lowest plasma calcium concentration | more hypocalcemia | highest plasma calcium concentration
